Experimental findings from patent US8552037B2, “Tricyclic compound and pharmaceutical use thereof” (Takeda Pharmaceutical Company Limited, priority 2006, dated 2013) are described below.

The target in series [1] is human melatonin 2 receptors (human MT2 receptors) (Homo sapiens (Human), UniProt P49286). The experiment in a line: Melatonin receptor binding assay, 2-[125I] Iodomelatonin, CHO-hMT2 cell membrane fraction. The conditions noted are these: binding inhibition of 2-[125I] Iodomelatonin, CHO-hMT2 membranes, 25° C., 2.5 hr. Here is the method:
(§1) Melatonin Receptor Binding Assay
(2) Preparation of CHO-hMT2 Cells Expressing Human Melatonin 2 Receptors
CHO-K1 cells (ATCC, #CCL-61) were plated at the concentration of 1.5×10^5 cells/cm^2 in a 6 well plate (ASAHI TECHNO GLASS), and cultured under the conditions of 37° C., 5% CO2 for 24 hr.
(§2) (3) Preparation of Cell Membrane Fraction of CHO Cell (CHO-hMelR7 and CHO-hMT2) Stably Expressing Human MT1 and MT2 Receptors
(§3) CHO-hMelR7 and CHO-hMT2 cells were plated using Cellfactory (Nunc, #170009) under the conditions of 1×10^8 cells/2000 mL/flask. The cells were grown to confluent, and recovered by the following method. As the medium for CHO-hMelR7 and CHO-hMT2, MEM α containing 10% FBS and penicillin/streptomycin was used. […] of geneticin was added to the medium for CHO-hMT2.
(§4) The medium was discarded, cells were washed twice with 200 mL of EDTA/PBS(−), 200 mL of EDTA/PBS(−) was further added, and the cells were stood still at room temperature for 20 min until they were released. […] The mixture was further centrifuged at 1,500 rpm for 10 min at 4° C., and the obtained pellets were suspended in 20 mL of ice-cooled homogenizing buffer [10 mM NaHCO3, 5 mM EDTA, Protease inhibitor Complete (Roche), pH 7.4]. The cell suspension was homogenized 3 times using a polytron homogenizer at 20,000 rpm for 30 sec. The obtained homogenate was centrifuged (2,000 rpm, 10 min, 4° C.) using a low speed cooling centrifuge. The supernatant was recovered in an ultracentrifugation tube and ultracentrifuged (40,000 rpm, 60 min, 4° C.) using an ultracentrifuge (Beckman, L-90K). To the obtained pellets was added a suspending buffer [50 mM Tris-HCl, 1 mM EDTA, Protease inhibitor Complete (Roche), pH 7.4], and the pellets were suspended by pipetting. The protein concentration of this suspension was measured, diluted to 2 mg/mL to give cell membrane fractions of CHO-hMelR7 and CHO-hMT2 cells. […] Protein was quantified using BCA protein assay kit (Pierce) with BSA as the standard.
(§5) (4) Preparation of Membrane Fraction Suspension
(§6) Immediately before use, the membrane fractions of CHO-hMelR7 and CHO-hMT2 cells of the above-mentioned (3) were diluted 20-fold with assay buffer (50 mM Tris-HCl, pH 7.7).
(§7) Iodomelatonin (#NEX236, PerkinElmer) was diluted with the assay buffer to 400 pM for MT1 and 1 nM for MT2.
(§8) Then, a test compound (compound solution diluted with DMSO to 200-fold of the final measurement concentration) was added by 2 μL. 2 μL of DMSO was added to each well of the total binding control section, and 100 μM cold Melatonin solution (Sigma, diluted with DMSO to 100 μM) was added to each well of the nonspecific binding control section by 2 μL. Then, the membrane fraction suspension (100 μL) was added. […] Iodomelatonin solution of the above-mentioned (5) was added to each well mentioned above by 20 μL, and a binding reaction was carried out at 25° C. for 2.5 hr in a micromixer (TAITEC, Bioshaker M.BR-024).
(§9) Using a cell harvester (PerkinElmer), the binding reaction mixture in each well of the 96-well plate was transferred to a treated (immersed in 50 mM Tris, pH 7.7 in advance) filter plate (UniFilter GF/C, PerkinElmer) and filtered. After filtration, the plate was washed 4 times with the assay buffer, and dried in a dryer (42° C.) for 2 hr or more. 25 μL of a liquid scintillator (MicroScint O, PerkinElmer) was added to each well of the filter plate after drying, and the luminescence of scintillator was measured by TopCount (PerkinElmer) for 1 min.
(§10) Specific binding is a value obtained by subtracting nonspecific binding from the total binding. The binding inhibitory activity of the test compound is shown by the ratio of the value obtained by subtracting the measurement value when the test compound was added from the total binding, to the specific binding.

The nature of series [2]: In vitro metabolic stability test. Format: in vitro ADME. The conditions noted are these: human liver microsome, NADPH production system, 37° C., 20 min incubation, HPLC-UV. Here is the method: In Vitro Metabolic Stability Test
(1) Preparation of Analysis Sample
The necessary amounts of the analysis samples were prepared at the following composition ratio. Test compound mixture: 0.1 mol/L phosphate buffer (pH 7.4) (41 μL), control microsome (manufactured by Gentest, human lymphoblastoid cell-derived control microsome, 10 mg protein/mL) (8 μL), and test compound 0.1 mM methanol solution (1 μL). Microsome mixed solution: 0.1 mol/L phosphate buffer (pH 7.4) (9 μL), human liver microsome (manufactured by XENOTECH, H0610, 20 mg protein/mL) (1 μL), and purified water (20 μL). NADPH production system: 50 mmol/L β-NADP+ (200 μL), 500 mmol/L Glucose-6-phosphate (200 μL), 150 unit/mL Glucose-6-phosphate dehydrogenase (200 μL), 0.1 mol/L MgCl2 (1 mL), and purified water (2.4 mL).
Microsome mixed solution (30 μL) and NADPH production system (20 μL) were sequentially dispensed to each well of a 96 well plate (type 3371, Corning), and a test compound mixture (50 μL) was added. Acetonitrile (100 μL) was added before start of incubation at 37° C. or 20 min later to give samples before and after incubation. These samples were centrifuged (3,000 rpm, 10 min), and the supernatant was dispensed to a 96 well plate by about 100 μL and 2-fold diluted with purified water (100 μL). 90 μL thereof was analyzed by HPLC.
HPLC analysis Conditions • Instrument: Shimadzu LC10vp • Column: CAPCELL PAK C18 MGII (4.6×75 mm, 3 μm) • Mobile phase A: 10 mmol/L ammonium acetate:acetonitrile=9:1 • Mobile phase B: 10 mmol/L ammonium acetate:acetonitrile=1:9 • Flow rate: 1 mL/min • Column temperature: 40° C. • Detection: UV (250 nm) • Gradient: […]
(3) Data Analysis and Results
Elimination percentage was determined from the difference in the unchanged compound peak areas before and after the start of the reaction, normalized based on the reaction time and microsome concentration, and the elimination rate (%/min/mg) was calculated.
In general terms: Microsomes from liver hold many membrane-bound enzymes, among them those of drug oxidation.

In series [3] the target is human melatonin 1 receptors (human MT1 receptors) (Homo sapiens (Human), UniProt P48039). The experiment in a line: Melatonin receptor binding assay, 2-[125I] Iodomelatonin, CHO-hMelR7 cell membrane fraction. The conditions noted are these: binding inhibition of 2-[125I] Iodomelatonin, CHO-hMelR7 membranes, 25° C., 2.5 hr. On the procedure: as §1
(1) Preparation of CHO-hMelR7 Cells Expressing Human Melatonin 1 Receptors
as §2, §3, §4, §5, §6, §7, §8, §9, §10

pIC50: −log10 of the molar value.

Chain of human melatonin 2 receptors (human MT2 receptors) (P49286 whole entry): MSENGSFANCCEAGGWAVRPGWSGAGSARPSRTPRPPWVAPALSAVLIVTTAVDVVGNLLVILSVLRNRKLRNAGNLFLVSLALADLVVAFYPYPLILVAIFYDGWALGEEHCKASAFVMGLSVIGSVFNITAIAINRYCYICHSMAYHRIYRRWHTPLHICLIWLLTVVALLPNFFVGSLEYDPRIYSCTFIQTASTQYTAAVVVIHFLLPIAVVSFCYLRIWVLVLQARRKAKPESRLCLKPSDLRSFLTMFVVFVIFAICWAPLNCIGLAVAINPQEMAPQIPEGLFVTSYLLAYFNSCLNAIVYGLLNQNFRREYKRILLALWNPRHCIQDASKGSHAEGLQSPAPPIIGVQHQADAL
Chain of human melatonin 1 receptors (human MT1 receptors) (P48039 whole entry): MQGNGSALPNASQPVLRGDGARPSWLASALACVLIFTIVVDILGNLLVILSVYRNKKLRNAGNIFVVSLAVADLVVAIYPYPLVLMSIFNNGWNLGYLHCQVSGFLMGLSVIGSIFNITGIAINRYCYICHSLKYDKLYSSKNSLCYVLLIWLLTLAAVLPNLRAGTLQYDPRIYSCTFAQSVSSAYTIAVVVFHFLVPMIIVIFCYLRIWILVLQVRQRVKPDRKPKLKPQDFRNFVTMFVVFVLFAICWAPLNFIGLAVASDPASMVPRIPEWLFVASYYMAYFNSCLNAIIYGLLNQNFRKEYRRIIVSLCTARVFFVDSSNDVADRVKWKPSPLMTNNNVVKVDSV

A word on the pIC50: it is the negative decadic logarithm of the IC50, by convention in mol/L. For the molecule `CC(=O)NCC[C@@H]1CCc2ccc3nc(C)oc3c21` [Example 12, (S)-N-[2-(2-Methyl-7,8-dihydro-6H-indeno[5,4-d][1,3]oxazol-8-yl)ethyl]acetamide], the pIC50 is 9.89 in series [1] and 10.24 in series [3]. In addition, the “elimination rate (%/min/mg)” value in series [2] was −0.3 %/min/mg.

As to `CCC(=O)NCC[C@@H]1CCc2ccc3nc(C)oc3c21` [Example 15, (S)-N-[2-(2-Methyl-7,8-dihydro-6H-indeno[5,4-d][1,3]oxazol-8-yl)ethyl]propionamide], the pIC50 in series [1] was 10.31; in series [3], 10.52. Besides, the “elimination rate (%/min/mg)” value in series [2] came out at 2.6 %/min/mg.

Consider `CC(=O)NCCC1CCc2ccc3nc(C)sc3c21` (stereo not shown) [Example 19, N-[2-(2-Methyl-7,8-dihydro-6H-indeno[5,4-d][1,3]thiazol-8-yl)ethyl]acetamide], for which the pIC50 in series [1] is 9.55; in series [3], 9.82. For the same molecule, the “elimination rate (%/min/mg)” value in series [2] is given as 2.4 %/min/mg.

For the molecule `CC(=O)NCC[C@@H]1CCc2ccc3nc(C)sc3c21` [Example 20, (S)-N-[2-(2-Methyl-7,8-dihydro-6H-indeno[5,4-d][1,3]thiazol-8-yl)ethyl]acetamide], the values for the pIC50 in series [1] and in series [3] were 9.92 and 10.42, respectively. For the same molecule, in series [2], the “elimination rate (%/min/mg)” value is on record as 2.7 %/min/mg.

A word on the melting point: it is the temperature, or range, at which the solid turns liquid. `CC(=O)NCCC1CCc2ccc3nc(C4CC4)oc3c21` (stereo not shown) [Example 29, N-[2-(2-Cyclopropyl-7,8-dihydro-6H-indeno[5,4-d][1,3]oxazol-8-yl)ethyl]acetamide] had a melting point of 92 to 95 °C. For the same molecule, the pIC50 in series [1] is 9.12. Further, in series [3], the pIC50 was 9.18.

As to `COc1nc2ccc3c(c2o1)C(CCNC(C)=O)CC3` (stereo not shown) [Example 38, N-[2-(2-Methoxy-7,8-dihydro-6H-indeno[5,4-d][1,3]oxazol-8-yl)ethyl]acetamide], the melting point was in the range of 126 to 128 °C. In addition, in series [1], the pIC50 was 9.55. For the same molecule, the “elimination rate (%/min/mg)” value in series [2] came out at 2.6 %/min/mg. The pIC50 in series [3] was 9.27.

Turning to `Cc1nc2ccc3c(c2o1)C(CCNC(=O)C1CC1)CC3` (stereo not shown) [Example 43, N-[2-(2-Methyl-7,8-dihydro-6H-indeno[5,4-d][1,3]oxazol-8-yl)ethyl]cyclopropanecarboxamide], the melting point was in the range of 134 to 137 °C. In series [1], this molecule showed a pIC50 of 9.11. In addition, the pIC50 in series [3] is 9.60.

For `Cc1nc2ccc3c(c2o1)C(CCNC(=O)C(F)(F)F)CC3` (stereo not shown) [Example 45, 2,2,2-Trifluoro-N-[2-(2-methyl-7,8-dihydro-6H-indeno[5,4-d][1,3]oxazol-8-yl)ethyl]acetamide], the melting point lay in the range of 104 to 106 °C. The same molecule had a pIC50 in series [1] of 9.85. Besides, in series [3], the pIC50 is 10.02.
